Consider 50 molecules from US20250304927A1, “PRO-PEPTIDE VARIANTS FOR MODULATING ACTIVITY OF TRANSGLUTAMINASES” (CURIE CO. INC., priority 2022, published 2025).

Where no end group is shown, it is not given here. Bounds are passed on as bounds.

Test [1] concerns the target T1, thermostable mature transglutaminase variant (SEQ ID NO: 3) (Streptomyces mobaraensis, UniProt P81453).
T1 construct: made in house; host or cells: E. coli (lysate)
Format: biochemical. Particulars: increase in transglutaminase activity relative to wild-type pro-peptide, casein assay; Method A. The text has this: Method A. A bicistronic expression vector encoding the wild-type pro-domain of transglutaminase (SEQ ID NO: 2) and a thermostable mature transglutaminase variant (SEQ ID NO: 3) as separate polypeptides was cloned as described in PCT/US20/49226 (WO2021/178001 A1). The vector was used as a template for synthesis of a random mutagenesis library targeting the pro-domain coding sequence to create pro-domain peptide variants.
Method A. Plasmid libraries containing mature transglutaminase and variant pro-domain peptides were plated on Luria-Bertani (LB) agar plates containing 50 μg/mL of kanamycin. After incubation for at least 16 hours at 37° C., colonies were picked and inoculated into 1 mL of LB broth with 50 μg/mL kanamycin in one well of a 96 deep well culture plate. The plate was covered with a breathable seal and incubated overnight at 37° C. with 400 rpm of shaking. 10 μL of the seed culture was used to inoculate 1 mL of media in a 96 deep well culture plate for expression. The expression plate was allowed to grow for 6-8 hours at 30° C. Expression was then induced by adding isopropyl beta-D-1-thiogalactopyranoside (IPTG) to a final concentration of 1 mM and the temperature was reduced to 20° C. while growth continued for an additional 15 hours. Cells were harvested by centrifugation at 4000 rcf for 30 minutes and pellets were frozen at −80° C.
A secondary screen was performed to determine initial rate of transglutaminase in the presence of the pro-peptide variants using transglutaminase-catalyzed labeling of casein with dansylcadaverine (e.g., a commercially available kit such as the Transglutaminase Fluorogenic Activity Assay Kit, T036, Zedira, Germany). Transglutaminase activity was monitored by measuring the fluorescence (excitation wavelength 332 nm; emission wavelength 500 nm) using a BioTek Synergy H1 microplate reader. Transglutaminase-catalyzed covalent coupling (crosslinking) of monodansylcadaverine with N,N-dimethylcasein produces a product that causes a shift in intensity and wavelength of fluorescence of the dansyl group now linked to the casein. The relative transglutaminase activity is shown by increase of fluorescence intensity over time. The data were normalized for transglutaminase expression levels in E. coli lysate as described above. Pro-domain variants were identified based on their ability to alter the activity of the mature transglutaminase enzyme. […]
It is believed that these pro-peptide variants have reduced binding affinity with mature mTgase.

Test [2] addresses T2, evolved variant of mature Streptomyces mobaraensis transglutaminase, including a two amino acid linker and … (Streptomyces mobaraensis, UniProt P81453 79-407).
T2 chain: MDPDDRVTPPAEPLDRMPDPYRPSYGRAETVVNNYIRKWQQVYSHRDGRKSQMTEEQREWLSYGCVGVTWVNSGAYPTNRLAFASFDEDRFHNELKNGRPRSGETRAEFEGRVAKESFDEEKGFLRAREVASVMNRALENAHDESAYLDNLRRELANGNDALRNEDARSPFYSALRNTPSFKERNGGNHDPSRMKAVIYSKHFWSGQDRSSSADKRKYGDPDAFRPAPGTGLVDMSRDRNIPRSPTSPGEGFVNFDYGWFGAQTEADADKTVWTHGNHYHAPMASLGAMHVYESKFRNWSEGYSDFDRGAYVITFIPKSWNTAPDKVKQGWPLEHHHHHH
The experiment in a line: cell-based or functional assay.

T1 sequence (P81453 other isoform, or with tags, fused parts or gaps): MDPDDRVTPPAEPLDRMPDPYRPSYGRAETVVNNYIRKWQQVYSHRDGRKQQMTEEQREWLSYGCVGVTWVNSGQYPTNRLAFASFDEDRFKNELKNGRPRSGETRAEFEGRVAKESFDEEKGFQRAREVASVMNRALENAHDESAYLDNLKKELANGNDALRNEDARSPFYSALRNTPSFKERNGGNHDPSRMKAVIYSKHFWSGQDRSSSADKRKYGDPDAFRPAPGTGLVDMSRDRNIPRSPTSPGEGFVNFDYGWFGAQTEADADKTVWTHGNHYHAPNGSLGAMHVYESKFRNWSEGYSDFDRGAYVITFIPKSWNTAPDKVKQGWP

For “MDNGAGEETKSYAETYRLTADDVANINALNESAPAASDAGPSFRAP [Variant S38D]”, in test [1], the “Reduction in binding affinity of inhibitory peptide relative to WT” value is on record as >1.2 fold.

As for “MDNGAGEETKYYAETYRLTADDVANINALNESAPAASSAGPSFRAP [Variant S11Y]”, the “Reduction in binding affinity of inhibitory peptide relative to WT” value in test [1] was >1.2 fold.

Take “MDNGAGEETKSYAETYRSTADDVANINALNESAPAASSAGPSFRAP [Variant L18S]”: the “Reduction in binding affinity of inhibitory peptide relative to WT” value in test [1] is on record as >1.2 fold.

Take “MDNGAGEETKSYATTYRLTADDVANINALNESAPAASSAGPSFRAP [Variant E14T]”: in test [1], the “Reduction in binding affinity of inhibitory peptide relative to WT” value is reported as >1.2 fold.

For MDNGAGEETKSYAETYRLTAD [ΔD22-P46], the “Reduction in binding affinity of inhibitory peptide relative to WT” value in test [1] was >1.2 fold.

“MDNGAGEETDSYAETYRLTADDVANINALNESAPAASSAGPSFRAP [Variant K10D]”: in test [1], the “Reduction in binding affinity of inhibitory peptide relative to WT” value was >1.2 fold.

“MDNGAGEETKSYAHTYRLTADDVANINALNESAPAASSAGPSFRAP [Variant E14H]”: the “Reduction in binding affinity of inhibitory peptide relative to WT” value in test [1] was >1.2 fold.

Consider “MDNGAGEETKSYADTYRLTADDVANINALNESAPAASSAGPSFRAP [Variant E14D]”, for which the “Reduction in binding affinity of inhibitory peptide relative to WT” value in test [1] is given as >1.2 fold.

For the molecule “MDNGAGEETKSYAETYRWTADDVANINALNESAPAASSAGPSFRAP [Variant L18W]”, in test [1], the “Reduction in binding affinity of inhibitory peptide relative to WT” value was >1.2 fold.

Take “MDNGAGEETKSYACTYRLTADDVANINALNESAPAASSAGPSFRAP [Variant E14C]”: the “Reduction in binding affinity of inhibitory peptide relative to WT” value in test [1] is given as >1.2 fold.

“MDNGAGEETKLYAETYRLTADDVANINALNESAPAASSAGPSFRAP [Variant S11L]”: the “Reduction in binding affinity of inhibitory peptide relative to WT” value in test [1] is on record as >1.2 fold.

As for “MDNGAGEETKGYAETYRLTADDVANINALNESAPAASSAGPSFRAP [Variant S11G]”, the “Reduction in binding affinity of inhibitory peptide relative to WT” value in test [1] is given as >5 fold.

With “MDNGAGEETKKYAETYRLTADDVANINALNESAPAASSAGPSFRAP [Variant S11K]”, the “Reduction in binding affinity of inhibitory peptide relative to WT” value in test [1] is >1.2 fold.

Turning to MDNGAGEETKS [ΔY12-P46], the “Reduction in binding affinity of inhibitory peptide relative to WT” value in test [1] is >1.2 fold.

Regarding “MDNGAGEETKSYANTYRLTADDVANINALNESAPAASSAGPSFRAP [Variant E14N]”, the “Reduction in binding affinity of inhibitory peptide relative to WT” value in test [1] is listed as >1.2 fold.

Regarding “MDNGAGEETKSPAETYRLTADDVANINALNESAPAASSAGPSFRAP [Variant Y12P]”, the “Reduction in binding affinity of inhibitory peptide relative to WT” value in test [1] is >1.2 fold.

With “MDNGAGEETKSYAETYRLTADDVANINALNESAPAASPAGPSFRAP [Variant S38P]”, the “Reduction in binding affinity of inhibitory peptide relative to WT” value in test [1] is given as >1.2 fold.

For “MDNGAGEETKSYAGTYRLTADDVANINALNESAPAASSAGPSFRAP [Variant E14G]”, the “Reduction in binding affinity of inhibitory peptide relative to WT” value in test [1] is on record as >1.2 fold.

Consider “MDNGAGEETKSYAVTYRLTADDVANINALNESAPAASSAGPSFRAP [Variant E14V]”, for which, in test [1], the “Reduction in binding affinity of inhibitory peptide relative to WT” value was >1.2 fold.

MDNGAGEETKSYAETYRLTADDVAN [ΔI26-P46]: the “Reduction in binding affinity of inhibitory peptide relative to WT” value in test [1] is on record as >1.2 fold.

On to “MDNGAGEETKSNAETYRLTADDVANINALNESAPAASSAGPSFRAP [Variant Y12N]”, for which, in test [1], the “Reduction in binding affinity of inhibitory peptide relative to WT” value was >1.2 fold.

In the case of “MDNGAGEETCSYAETYRLTADDVANINALNESAPAASSAGPSFRAP [Variant K10C]”, the “Reduction in binding affinity of inhibitory peptide relative to WT” value in test [1] is >1.2 fold.

With “MDNGAGEETKSGAETYRLTADDVANINALNESAPAASSAGPSFRAP [Variant Y12G]”, in test [1], the “Reduction in binding affinity of inhibitory peptide relative to WT” value is on record as >1.2 fold.

Take “MDNGAGEETKSYAETYRLTADRVANINALNESAPAASSAGPSFRAP [Variant D22R]”: the “Reduction in binding affinity of inhibitory peptide relative to WT” value in test [1] is recorded as >1.2 fold.

Turning to “MDNGAGEETKSYAETYRLTADQVANINALNESAPAASSAGPSFRAP [Variant D22Q]”, the “Reduction in binding affinity of inhibitory peptide relative to WT” value in test [1] is >1.2 fold.

Regarding “MDNGAGEETKSYAETYRLTADYVANINALNESAPAASSAGPSFRAP [Variant D22Y]”, the “Reduction in binding affinity of inhibitory peptide relative to WT” value in test [1] was >1.2 fold.

“MDNGAGEETKHYAETYRLTADDVANINALNESAPAASSAGPSFRAP [Variant S11H]”: in test [1], the “Reduction in binding affinity of inhibitory peptide relative to WT” value is reported as >1.2 fold.

In the case of “MDNGAGEETKSYAETYRLTADGVANINALNESAPAASSAGPSFRAP [Variant D22G]”, the “Reduction in binding affinity of inhibitory peptide relative to WT” value in test [1] is recorded as >1.2 fold.

“MDNGAGEETKSYAETYRLTADDVANANALNESAPAASSAGPSFRAP [Variant I26A]”: the “Reduction in binding affinity of inhibitory peptide relative to WT” value in test [1] is >1.2 fold.

As to “MDNGAGEETKSYAETYRKTADDVANINALNESAPAASSAGPSFRAP [Variant L18K]”, in test [1], the “Reduction in binding affinity of inhibitory peptide relative to WT” value is >1.2 fold.

“MDNGAGEETKSLAETYRLTADDVANINALNESAPAASSAGPSFRAP [Variant Y12L]”: in test [1], the “Reduction in binding affinity of inhibitory peptide relative to WT” value is given as >1.2 fold.

“MDNGAGEETGSYAETYRLTADDVANINALNESAPAASSAGPSFRAP [Variant K10G]”: in test [1], the “Reduction in binding affinity of inhibitory peptide relative to WT” value is given as >1.2 fold.

Take “MDNGAGEETKSYAETYRLTADDVANENALNESAPAASSAGPSFRAP [Variant I26E]”: in test [1], the “Reduction in binding affinity of inhibitory peptide relative to WT” value is listed as >1.2 fold.

Turning to “MDNGAGEETKSYAETYRLTADDVANYNALNESAPAASSAGPSFRAP [Variant I26Y]”, in test [1], the “Reduction in binding affinity of inhibitory peptide relative to WT” value is reported as >1.2 fold.

Take “MDNGAGEETKSYAATYRLTADDVANINALNESAPAASSAGPSFRAP [Variant E14A]”: in test [1], the “Reduction in binding affinity of inhibitory peptide relative to WT” value is >1.2 fold.

Consider “MDNGAGEETKSYAETYRLTADPVANINALNESAPAASSAGPSFRAP [Variant D22P]”, for which the “Reduction in binding affinity of inhibitory peptide relative to WT” value in test [1] is given as >1.2 fold.

Turning to “MDNGAGEETKSVAETYRLTADDVANINALNESAPAASSAGPSFRAP [Variant Y12V]”, in test [1], the “Reduction in binding affinity of inhibitory peptide relative to WT” value is reported as >1.2 fold.

With “MDNGAGEETRSYAETYRLTADDVANINALNESAPAASSAGPSFRAP [Variant K10R]”, the “Reduction in binding affinity of inhibitory peptide relative to WT” value in test [1] is on record as >1.2 fold.

As for “MDNGAGEETKSYAETYRLTADDVANINALNESAPAASYAGPSFRAP [Variant S38Y]”, the “Reduction in binding affinity of inhibitory peptide relative to WT” value in test [1] was >1.2 fold.

For MDNGAGEETKSYAETYR [ΔL18-P46], the “Reduction in binding affinity of inhibitory peptide relative to WT” value in test [1] is given as >1.2 fold.

“MDNGAGEETKSTAETYRLTADDVANINALNESAPAASSAGPSFRAP [Variant Y12T]”: the “Reduction in binding affinity of inhibitory peptide relative to WT” value in test [1] is on record as >1.2 fold.

As to “MDNGAGEEQKSYAETYRLTADDVANINALNESAPAASSAGPSFRAP [Variant T9Q]”, in test [1], the “Reduction in binding affinity of inhibitory peptide relative to WT” value was >1.2 fold.

For “MDNGAGEETKSYAETYRETADDVANINALNESAPAASSAGPSFRAP [Variant L18E]”, the “Reduction in binding affinity of inhibitory peptide relative to WT” value in test [1] was >1.2 fold.

Turning to “MDNGAGGETKSYAETYRLTADDVANINALNESAPAASSAGPSFRAP [Variant E7G]”, the “Reduction in binding affinity of inhibitory peptide relative to WT” value in test [1] is reported as >1.2 fold.

Take “MDNGAGEETKSYARTYRLTADDVANINALNESAPAASSAGPSFRAP [Variant E14R]”: the “Reduction in binding affinity of inhibitory peptide relative to WT” value in test [1] was >1.2 fold.

For “MDNGAGEYTKSYAETYRLTADDVANINALNESAPAASSAGPSFRAP [Variant E8Y]”, in test [1], the “Reduction in binding affinity of inhibitory peptide relative to WT” value is reported as >1.2 fold.

Regarding “MDNGAGEETKSSAETYRLTADDVANINALNESAPAASSAGPSFRAP [Variant Y12S]”, the “Reduction in binding affinity of inhibitory peptide relative to WT” value in test [1] is reported as >5 fold.

B1: pro-peptide variant D2S, E7S, D22Q (Method B) (peptide)
peptide: MSNGAGSETKSYAETYRLTADQVANINALNESAPAASSAGPSFRAP
Take B1: the Inhibition in test [2] was > 2 fold.

B2: pro-peptide variant D2S, E7S (Method B) (peptide)
peptide: MSNGAGSETKSYAETYRLTADDVANINALNESAPAASSAGPSFRAP
In the case of B2, in test [2], the Inhibition was > 2 fold.

B3: pro-peptide variant D2I, E7S, D22Q (Method B) (peptide)
peptide: MINGAGSETKSYAETYRLTADQVANINALNESAPAASSAGPSFRAP
For B3, the Inhibition in test [2] was > 2 fold.
